Test results published in US11564923B2, “Compounds and pharmaceutical compositions thereof for the treatment of inflammatory disorders” (Galapagos NV, priority 2017, dated 2023).
Counter-ions that a name gives are not always drawn.

Columns and labels:
[1] = biological target: T1, Recombinant human JAK1 (catalytic domain, amino acids 866-1154) (Homo sapiens, UniProt P23458); experiment: JAK1 inhibition assay; assay type: biochemical; conditions: read-out: JAK1 potency IC50
T1 construct: catalytic domain, amino acids 866-1154
T1 sequence (P23458 866-1154): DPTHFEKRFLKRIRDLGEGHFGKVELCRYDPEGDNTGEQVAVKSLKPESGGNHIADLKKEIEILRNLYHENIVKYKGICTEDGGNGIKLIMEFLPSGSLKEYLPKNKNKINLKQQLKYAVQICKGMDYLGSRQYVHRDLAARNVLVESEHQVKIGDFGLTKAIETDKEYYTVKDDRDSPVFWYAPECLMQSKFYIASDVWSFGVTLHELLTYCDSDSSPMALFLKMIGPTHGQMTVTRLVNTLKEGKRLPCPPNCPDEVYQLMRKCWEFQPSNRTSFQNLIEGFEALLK
Procedure: (§1) After 60 min at room temperature, reactions are stopped by adding 20 μL/well of detection mixture (1× detection buffer (Perkin Elmer, catalog number CR97-100), 0.5 nM Europium-anti-phosphotyrosine (PT66) (Perkin Elmer, catalog number AD0068/AD0069), 10 mM EDTA). […] Kinase activity is calculated by subtracting the ratio obtained in the presence of a positive control inhibitor (1 μM staurosporine) from the ratio obtained in the presence of vehicle. The ability of a test compound to inhibit this activity (or percentage inhibition) is determined as:
(§2) [formula] wherein Fluorescent ratio test compound=ratio RFU665/RFU615*1000 determined for sample with test compound present Fluorescent ratio control=ratio RFU665/RFU615*1000 determined for sample with positive control inhibitor Fluorescent ratio vehicle=ratio RFU665/RFU615*1000 determined in the presence of vehicle
(§3) Dose dilution series were prepared for the compounds enabling the testing of dose-response effects in the JAK1 assay and the calculation of the IC50 for the compound. Each compound is routinely tested at concentration of 20 μM followed by a 1/5 serial dilution, 10 points in a final concentration of 1% DMSO. […] The data are expressed as the average IC50 from the assays.

[2] = biological target: T2, Recombinant human JAK2 (catalytic domain, amino acids 808-1132) (Homo sapiens, UniProt O60674); experiment: JAK2 inhibition assay; assay type: biochemical; conditions: read-out: JAK2 potency IC50; note: 0.7 µM ATP
T2 construct: catalytic domain, amino acids 808-1132
T2 sequence (O60674 808-1132): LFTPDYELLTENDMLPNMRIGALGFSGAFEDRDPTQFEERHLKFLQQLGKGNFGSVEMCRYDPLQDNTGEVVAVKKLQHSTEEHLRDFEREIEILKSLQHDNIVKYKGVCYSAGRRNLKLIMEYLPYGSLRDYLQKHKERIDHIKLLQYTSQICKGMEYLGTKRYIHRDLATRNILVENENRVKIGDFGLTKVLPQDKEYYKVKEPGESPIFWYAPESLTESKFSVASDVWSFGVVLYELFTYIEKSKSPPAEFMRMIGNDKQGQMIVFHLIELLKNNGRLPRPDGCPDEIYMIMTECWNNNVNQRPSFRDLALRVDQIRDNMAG
Procedure: as §1, with “CR97-100) with” for “CR97-100),”, “AD0068/AD0069) and” for “AD0068/AD0069),”
as §2
as §3, with “are” for “were”, “compound” for “the compounds”, “JAK2” for “JAK1”

[3] = biological target: T3, Recombinant human TYK2 catalytic domain (amino acids 871-1187) (Homo sapiens, UniProt P29597); experiment: TYK2 radioactive assay polyGT substrate; assay type: biochemical; note: 0.1 µM ATP
T3 construct: catalytic domain (amino acids 871-1187)
T3 sequence (P29597 871-1187): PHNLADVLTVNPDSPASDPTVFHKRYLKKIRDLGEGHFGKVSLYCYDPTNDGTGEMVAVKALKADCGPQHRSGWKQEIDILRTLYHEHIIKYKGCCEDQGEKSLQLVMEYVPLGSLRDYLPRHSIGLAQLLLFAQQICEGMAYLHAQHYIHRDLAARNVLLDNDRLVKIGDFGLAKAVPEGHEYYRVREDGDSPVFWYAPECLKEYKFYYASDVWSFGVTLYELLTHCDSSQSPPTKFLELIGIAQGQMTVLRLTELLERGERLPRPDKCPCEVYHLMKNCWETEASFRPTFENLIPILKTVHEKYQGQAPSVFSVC
Outline: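 Reaction at 30° C. for 120 min, ended with 150 mM phosphoric acid, washed, counted; percent inhibition scaled between vehicle and 10 μM staurosporine cpm.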

[4] = biological target: Recombinant human JAK3 catalytic domain (amino acids 781-1124) (Homo sapiens, UniProt P52333); experiment: JAK3 inhibition assay; assay type: biochemical
Recombinant human JAK3 catalytic domain (amino acids 781-1124), sequence (P52333 781-1124): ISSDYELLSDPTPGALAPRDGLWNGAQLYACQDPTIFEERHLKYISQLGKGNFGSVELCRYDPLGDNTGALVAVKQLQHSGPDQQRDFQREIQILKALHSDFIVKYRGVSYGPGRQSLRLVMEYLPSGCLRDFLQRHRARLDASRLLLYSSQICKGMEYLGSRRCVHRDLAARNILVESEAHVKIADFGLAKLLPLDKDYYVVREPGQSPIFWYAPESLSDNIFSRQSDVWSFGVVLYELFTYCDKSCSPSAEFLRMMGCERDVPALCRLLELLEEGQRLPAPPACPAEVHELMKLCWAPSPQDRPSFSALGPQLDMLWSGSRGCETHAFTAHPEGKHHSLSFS
Procedure: After 45 min at 30° C., reactions are stopped by adding 25 μL/well of 150 mM phosphoric acid. […] Plates are washed 6 times with 300 μL per well of a 75 mM phosphoric acid solution and the bottom of the plates is sealed. […] Kinase activity is calculated by subtracting counts per min (cpm) obtained in the presence of a positive control inhibitor (10 μM staurosporine) from cpm obtained in the presence of vehicle. The ability of a test compound to inhibit this activity (or percentage inhibition) is determined as: […]
cpm test compound=cpm determined for sample with test compound present cpm control=cpm determined for sample with positive control inhibitor cpm vehicle=cpm determined in the presence of vehicle
Dose dilution series were prepared for the compounds enabling the testing of dose-response effects in the JAK3 assay and the calculation of the IC50 for each compound. Each compound is routinely tested at concentration of 20 μM followed by a 1/5 serial dilution, 10 points in a final concentration of 1% DMSO.

[5] = test system: IFNα activation of STAT1 in PBMC; experiment: IFNα activation of STAT1 in PBMC; assay type: cell-based; conditions: Homo sapiens; IFNα activation of STAT1 in PBMC; average IC50; read-out: IFNα signaling inhibitory potency IC50
Procedure: After these 2 wash steps the cell pellet is dissolved in ammonium chloride buffer (1.5 M NH4Cl, 100 mM NaHCO3 and 10 mM Na2.EDTA) for lysis of the red blood cells.
PBMC are treated with test compound for 30 min at 37° C. 5% CO2. […] After 30 min of test compound/vehicle pre-treatment, PBMC are stimulated for 30 min at 37° C. 5% CO2 with recombinant human IFNα (PeproTech, catalog number 300-02A) at a final concentration of 5 ng/mL by addition of 20 μL (10× concentrated) cytokine trigger to obtain a final volume of 200 μL per well.
After 30 min of cytokine stimulation, 200 μL of cell suspension is transferred to a 96-well V-bottom plate, centrifugated for 5 min at 1000 rpm to pellet cells, followed by removal of supernatant.
(§4) The percentage inhibition is calculated as: […]
RCLU(vehicle control): Relative Chemiluminescent signal determined in presence of vehicle and trigger
RCLU(test compound): Relative Chemiluminescent signal determined in presence of test compounds and trigger
RCLU(positive control): Relative Chemiluminescent signal determined in presence of positive control and trigger
PIN values are plotted for compounds tested in dose-response and average IC50 values are derived using GraphiPad Prism Software applying non-linear regression (sigmoidal) curve fitting.

[6] = test system: IL-12 activation of STAT4 in NK-92 cells; experiment: IL-12 activation of STAT4 in NK-92 cells using AphaLISA SureFire technology; assay type: cell-based; conditions: Homo sapiens, NK92; IL-12 activation of STAT4 in NK-92 cells, AlphaLISA SureFire; average IC50; read-out: IL12 pSTAT4 IC50
Procedure: IL-2 is added freshly to the medium with each medium refreshment step. Cells are cultured in a humidified incubator at 37° C. 5% CO2.
A subcultured fraction of NK-92 cells is washed once in culture medium without rhIL-2 the day before the experiment and incubated overnight in a culture flask.
5% CO2. […] NK-92 cells are triggered with rhIL-12 for 30 min at 37° C. 5% CO2.
After 30 min of cytokine stimulation the cells are lysed by addition of 15 μL 5× lysis buffer (supplemented with the AlphaLISA kit). After 10 minutes, plates are frozen at −80° C. overnight and the next day the levels of phospho-STAT4 are quantified using the AlphaLISA SureFire ULTRA p-STAT4 (Tyr693) (Perkin Elmer, Catalogue number ALSU-PST4-A10K) according to the manufacturers instructions. AlphaLISA signal (relative light units) is measured using an Envision (Perkin Elmer).
as §4
RLU(trigger/veh): Relative lumescent signal determined in presence of vehicle and trigger
RLU(test compound): Relative luminescent signal determined in presence of test compounds and trigger
PIN values are plotted for compounds tested in dose-response and IC50 values are derived using GraphPad Prism Software applying non-linear regression (sigmoidal) curve fitting. The data are expressed as the average IC50 from different experiments.

| SMILES | IC50 [1] | IC50 [2] | IC50 [3] | IC50 [4] | IC50 [6] | IC50 [5] |
| --- | --- | --- | --- | --- | --- | --- |
| Cc1cc(C#N)ncc1Oc1cc(Nc2ccc(C(=O)NCC(C)O)nc2)c2ncn(C)c2n1 (stereo not drawn) [Compound 30, 5-[5-(6-Cyano-4-methyl-pyridin-3-yloxy)-3-methyl-3H-imidazo[4,5-b]pyridin-7-ylamino]-pyridine-2-carboxylic acid (2-hydroxy-propyl)-amide] | 399 nM | 777 nM | 55.7 nM |  |  |  |
| Cc1cc(C#N)ncc1Oc1cc(Nc2ccc(C(=O)NCCN(C)C)cn2)c2ncn(C)c2n1 [Compound 99, 6-[[5-[(6-cyano-4-methyl-3-pyridyl)oxy]-3-methyl-imidazo[4,5-b]pyridin-7-yl]amino]-N-(2-dimethylaminoethyl)pyridine-3-carboxamide] | 111 nM | 51.1 nM | 17.8 nM | 916 nM |  |  |
| COC(C)CCNc1cc(Nc2cc(Oc3cnc(C#N)cc3C)nc3c2ncn3C)ncn1 (stereo not drawn) [Compound 37, 5-{7-[6-(3-Methoxy-butylamino)-pyrimidin-4-ylamino]-3-methyl-3H-imidazo[4,5-b]pyridin-5-yloxy}-4-methyl-pyridine-2-carbonitrile] | 84.3 nM | 20.1 nM | 3.62 nM | 439 nM |  |  |
| Cc1cc(C#N)ncc1N(CC(C)O)c1cc(Nc2cc(N)ncn2)c2ncn(C)c2n1 (stereo not drawn) [Cpd 187, 5-[[7-[(6-aminopyrimidin-4-yl)amino]-3-methyl-imidazo[4,5-b]pyridin-5-yl]-(2-hydroxypropyl)amino]-4-methyl-pyridine-2-carbonitrile] | 127 nM | 42.3 nM | 6.54 nM | 660 nM |  |  |
| Cc1cc(C#N)ncc1Nc1cc(Nc2ccc(C(=O)N(C)C)nn2)c2ncn(C)c2n1 [Compound 76, 6-[[5-[(6-cyano-4-methyl-3-pyridyl)amino]-3-methyl-imidazo[4,5-b]pyridin-7-yl]amino]-N,N-dimethyl-pyridazine-3-carboxamide] | 200 nM | 19.9 nM | 6.71 nM | 579 nM |  |  |
| Cc1cc(C#N)ncc1Oc1cc(Nc2ccc(N3CCC(CO)CC3)cn2)c2ncn(C)c2n1 [Compound 184, 5-[7-[[5-[4-(hydroxymethyl)-1-piperidyl]-2-pyridyl]amino]-3-methyl-imidazo[4,5-b]pyridin-5-yl]oxy-4-methyl-pyridine-2-carbonitrile] | 59 nM | 22.1 nM | 6.42 nM | 487 nM |  |  |

Continued by falling IC50 [3], values first:

| IC50 [1] | IC50 [2] | IC50 [3] | IC50 [4] | IC50 [6] | SMILES | IC50 [5] |
| --- | --- | --- | --- | --- | --- | --- |
| 165 nM | 76.4 nM | 17.2 nM | 721 nM |  | Cc1cc(C#N)ncc1Oc1cc(Nc2ccc(N3CCC(N(C)C)C3)cn2)c2ncn(C)c2n1 (stereo not drawn) [Compound 182, 5-[7-[[5-[3-(dimethylamino)pyrrolidin-1-yl]-2-pyridyl]amino]-3-methyl-imidazo[4,5-b]pyridin-5-yl]oxy-4-methyl-pyridine-2-carbonitrile] |  |
| 93.6 nM | 41.4 nM | 17 nM | 871 nM |  | Cc1cc(C#N)ncc1Oc1cc(Nc2ccc(N(C)C)cn2)c2ncn(C)c2n1 [Compound 185, 5-[7-[[5-(dimethylamino)-2-pyridyl]amino]-3-methyl-imidazo[4,5-b]pyridin-5-yl]oxy-4-methyl-pyridine-2-carbonitrile] |  |
| 278 nM | 27.1 nM | 16.3 nM |  | 987 nM | Cc1cc(C#N)ncc1Oc1cc(Nc2ccc(CN(C)CCN(C)C)cn2)c2ncn(C)c2n1 [Compound 83, 5-[7-[[5-[[2-(dimethylamino)ethyl-methylamino]methyl]pyridin-2-yl]amino]-3-methylimidazo[4,5-b]pyridin-5-yl]oxy-4-methylpyridine-2-carbonitrile formate salt] | 137 nM |
|  |  | 12.4 nM |  | 1520 nM | Cc1cc(C#N)ncc1Oc1cc(Nc2ccc(OC3CN(C)C3)nn2)c2ncn(C)c2n1 [Compound 90, 4-methyl-5-[3-methyl-7-[[6-(1-methylazetidin-3-yl)oxypyridazin-3-yl]amino]imidazo[4,5-b]pyridin-5-yl]oxypyridine-2-carbonitrile] | 288 nM |
|  |  | 3.39 nM |  | 2570 nM | Cc1cc(C#N)ncc1Oc1cc(Nc2ccc(C(=O)N3CCNCC3)cn2)c2ncn(C)c2n1 [Compound 178, 4-methyl-5-[3-methyl-7-[[5-(piperazine-1-carbonyl)pyridin-2-yl]amino]imidazo[4,5-b]pyridin-5-yl]oxypyridine-2-carbonitrile] | 189 nM |
|  |  | 1.66 nM |  | 213 nM | Cc1cc(C#N)ncc1Oc1cc(Nc2ccc(C(=O)N3CCOC[C@@H]3C)cn2)c2ncn(C)c2n1 [Compound 147, 4-methyl-5-[3-methyl-7-[[5-[(3S)-3-methylmorpholine-4-carbonyl]pyridin-2-yl]amino]imidazo[4,5-b]pyridin-5-yl]oxypyridine-2-carbonitrile] | 121 nM |
